# Laboratory results taken from patent US5739158A, “Nitrogen-containing cyclohetero cycloalkylaminoaryl derivatives for CNS disorders” (The United States of America as represented by the …, priority 1992, dated 1998).
# Where “and” joins values, the source holds several entries; their conditions need not be identical. Equal entries are not always repeated. Entries after “also recorded” stand apart in the source; their conditions may differ. Where two headings read alike, the source gives them in different places.
# What was measured:
# [1] = target: T1, sigma receptors (Cavia porcellus, UniProt Q60492); experiment: Radioreceptor assay in guinea pig brain homogenate (P2 membranes), [3H]-(+)-3-PPP; assay type: binding
# T1 construct: crude synaptosomal (P2) membrane fraction of guinea pig brain for sigma receptors; tissue Pel-Freeze, Rogers, Ak; host or cells: guinea pig brain minus cerebellum, crude synaptosomal (P2) membranes
# [2] = system: NMDA receptor; conditions: C. Carter et al, 1988; cited from earlier work
# [3] = target: T2, sigma receptor (Rattus norvegicus, UniProt Q9R0C9); experiment: Radioreceptor assay in rat brain homogenate, displacement of [3H]-(+)-3-PPP; assay type: binding; conditions: for Ki: rat brain membranes, 2 nM [3H]-(+)-3-PPP, 1 hr, room temperature, units ± SEM, read-out: Ki apparent
# T2 construct: Brains from male Sprague-Dawley rats were homogenized; from tissue; host or cells: rat brain crude membranes (male Sprague-Dawley)
# Method: Acad. Sci., 83, 8784-8788, 1986] to determine the relative potency of the compounds interacting with the sigma receptor. To determine the effects of the compounds in a sigma receptor assay, crude membrane preparations were prepared as follows. Brains from male Sprague-Dawley rats were homogenized in 10 volumes (wt/vol) of 0.32M sucrose, using a Polytron grinder. The homogenate was centrifuged at 900×G for 10 minutes at 4° C. The supernatant was collected and centrifuged at 22,000×g for 20 minutes at 4° C. The pellet was resuspended in 10 volumes of 50 mM Tris/HCl buffer (pH 7.4) and centrifuged at 22,000×g for 20 minutes at 4° C. The pellet was resuspended in 5 mM Tris/HCl buffer (pH 7.4) to give a final concentration of 250 mg/ml of the crude material. Incubation tubes were prepared in triplicate and contained 0.1 ml of tissue suspension, 2 nM of [^3 H]-(+)-1-propyl-3-(3-hydroxyphenyl)piperidine {[^3 H]-3-(+)-PPP}, and varying concentrations of the displacing ligand (0.1-1000 nM) in a final volume of 0.5 ml. After a 1 hr incubation at room temperature, the contents of the test tubes were filtered through GS filter paper which had been presoaked for at least 2 hours in 0.05% polyethyleneamine. The test tubes were rinsed three times with Tris/HCl buffer. Radioactivity on the filters was determined and […] were calculated from inhibition curves using the method of Cheng and Prusoff [Biochem. Pharmacol., 22, 3099-3108, 1973].
# [4] = system: substantia nigra; experiment: Circling behavior assay, intranigral microinjection; assay type: in vivo, rat; conditions: for Net Turns (individual rat): individual subjects
# Method: In order to assess the utility of compounds of the invention in treatment of Parkinsonism, the ability of the compound to stimulate movement following microinjections in the substantia nigra was assessed. Parkinson's disease results from the degeneration of dopamine-secreting neurons in the substantia nigra resulting in a reduced ability to generate movement. […] Such a stimulatory action would predict increased ability to generate voluntary movement in Parkinson's patients showing decreased functionality of this brain area. Current treatments of Parkinson's disease also stimulate this brain area, but show significant side effects that may not be present in compounds of the invention. […] It is expected, therefore, that compounds of the invention would have clinical utility in the treatment of Parkinson's disease and other disorders in which there is a paucity of movement.
# Three to seven days before behavioral testing, each animal (245-350 g, N=57) was anesthetized with 50 mg/kg sodium pentobarbital and mounted in a Narishige stereotaxic apparatus. A guide cannula, constructed from 24 gauge thinwall stainless steel tubing, was implanted with its tip 4.0 mm above the left substantia nigra pars reticulata (coordinates: 3.2 mm anterior; 2.2 mm lateral; 4.7 mm ventral), from lambda and the skull surface. Cannulae were secured with stainless steel screws and dental acrylic. Stainless steel stylers kept the cannulae sealed except during drug infusion. All drugs were prepared on the day of testing. Animals were gently restrained and the drugs were administered in a volume of 0.5 ul over 72 seconds through a 31 gauge microneedle that was constructed to extend 4.0 mm beyond the tips of the guide cannulae. […] Animals received a single injection of saline (n=6), 1.5 nmol (n=5), 3.7 nmol (n=6), 9.3 nmol (n=7 or 14.9 nmol (n=5) in 0.5 ul 0.9% NaCl. Following injection, each animal was fitted with a harness which was connected to an optical position transducer interfaced to a compouter that derived the number and direction of half turns for 30 min. Each rat received a single injection of the test drug to minimize tissue damage. Rats were sacrificed by an overdose of sodium pentobarbital and perfused intracardially with 10% formalin. Brains were fixed in a 30% sucrose-formalin solution and coronal sections (40 um) were taken throughout the extent of the injection site. The sections were stained with cresyl violet and examined under a microscope to localize injection sites. Only subjects with histologically confirmed injection sites were used in the data analyses. For the studies of circling behavior, the number of net (contalateral-isolateral) rotations were computed for each rat and subjected to analysis of variance. […] Results showing contralateral circling behavior produced by intranigral microinjections of various doses of Compound #1 are reported in Table IV and illustrated in FIG. 1.
# Individual subjects are shown along with the average and standard deviation of the effect.
# T1 sequence (Q60492 whole entry): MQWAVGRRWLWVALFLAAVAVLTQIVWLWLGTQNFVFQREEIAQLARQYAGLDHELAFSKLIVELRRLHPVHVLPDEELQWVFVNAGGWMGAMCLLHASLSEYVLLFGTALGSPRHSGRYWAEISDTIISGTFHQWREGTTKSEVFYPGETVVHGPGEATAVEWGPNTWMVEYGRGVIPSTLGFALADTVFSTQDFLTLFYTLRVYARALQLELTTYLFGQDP
# T2 sequence (Q9R0C9 whole entry): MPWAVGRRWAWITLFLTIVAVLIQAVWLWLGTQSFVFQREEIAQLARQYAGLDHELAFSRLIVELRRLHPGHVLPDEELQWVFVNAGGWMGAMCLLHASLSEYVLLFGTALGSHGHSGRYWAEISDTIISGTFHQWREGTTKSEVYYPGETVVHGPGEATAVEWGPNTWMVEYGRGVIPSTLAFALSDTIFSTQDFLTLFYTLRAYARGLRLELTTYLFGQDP
compound,measurement,setting,value
"CN(CCc1ccccc1)[C@@H]1CCCC[C@@H]1N1CCCC1 (racemic) [compound 9, (±)-cis-N-methyl-N-(2-phenylethyl)-2-(1-pyrrolidinyl)cyclohexylamine]",Ki,[1],113 ± 8 nM
"CCN(CCc1ccc(Cl)c(Cl)c1)[C@H]1CCCC[C@H]1N1CCCC1 [compound 14, 1S,2R-(-)-cis-N-[2-(3,4-dichlorophenyl)ethyl]-N-ethyl-2-(1-pyrrolidinyl)cyclohexylamine]",Ki,[1],3.1 ± 0.55 nM
"CN(CCc1ccc2ccccc2c1)[C@@H]1CCCC[C@@H]1N1CCCC1 (racemic) [compound 10, (±)-cis-N-methyl-N-[2-(β-naphthyl)ethyl]-2-(1-pyrrolidinyl)cyclohexylamine]",Ki,"[1]; guinea pig brain P2 membranes, 3 nM [3H]-3-PPP, pH 8.0, 120 min, 25° C., units ± SEM, read-out: Ki",33 ± 5 nM
"CCCN(CCc1ccc(Cl)c(Cl)c1)[C@H]1CCCC[C@H]1N1CCCC1 [compound 16, 1S,2R-(-)-cis-N-[2-(3,4-dichlorophenyl)ethyl]-N-(1-propyl)-2-(1-pyrrolidinyl)cyclohexylamine]",Ki,[1],140 ± 17 nM
"CCCN(CCc1ccc(Cl)c(Cl)c1)[C@@H]1CCCC[C@@H]1N1CCCC1 [compound 4, (1R,2S)-(-)-cis-N-[2-(3,4-dichlorophenyl)-ethyl]-N-(n-propyl)-2-(1-pyrrolidinyl)cyclohexylamine]",Ki,[1],56 ± 9.9 nM
1-(4-chlorophenyl)-2-[1-(4-fluorophenyl)piperidinyl]ethanol,NMDA receptor antagonism (in words),[2],non-competitive NMDA receptor antagonists
"CN(CCc1ccc2c(c1)OCO2)[C@H]1CCCC[C@H]1N1CCCC1 [compound 11, 1S,2R-(-)-cis-N-methyl-N-[2-(3,4-methylenedioxyphenyl)ethyl]-2-(1-pyrrolidinyl)cyclohexylamine]",Ki,[1],90 ± 20 nM
"CN(CCc1ccc2c(c1)OCO2)[C@@H]1CCCC[C@@H]1N1CCCC1 [compound 12, 1R,2S-(+)-cis-N-methyl-N-[2-(3,4-methylenedioxyphenyl)ethyl]-2-(1-pyrrolidinyl)cyclohexylamine]",Ki,[1],31 ± 0.05 nM
"CN(CCc1ccc(Cl)c(Cl)c1)[C@@H]1CCCC[C@@H]1N1CCCC1 (racemic) [Compound No. 1, (±)-cis-N-[2-(3,4-dichlorophenyl)ethyl]-N-methyl-2-(1-pyrrolidinyl)cyclohexylamine]",Binding to sigma receptors (in words),[3],binds to sigma receptors
same,Ki,[3],230 ± 70 nM
same,Ki,[1],1.8 ± 0.4 nM
same,"Net Turns, Average","[4]; dose 1.49 nmol, Stan Dev 18.94",11.00 1/2 contralateral rotations ne
same,Net Turns (individual rat),[4]; dose 1.49 nmol,25.00 1/2 contralateral rotations ne and 17.00 1/2 contralateral rotations ne and 5.00 1/2 contralateral rotations ne and 4.00 1/2 contralateral rotations ne and 38.00 1/2 contralateral rotations ne
same,"Net Turns, Average","[4]; dose 3.72 nmol, Stan Dev = 7.87",18.33 1/2 contralateral rotations ne
same,Net Turns (individual rat),[4]; dose 3.72 nmol,13.00 1/2 contralateral rotations ne and 23.00 1/2 contralateral rotations ne and 5.00 1/2 contralateral rotations ne and 28.00 1/2 contralateral rotations ne and 25.00 1/2 contralateral rotations ne and 16.00 1/2 contralateral rotations ne
same,"Net Turns, Average","[4]; dose 9.3 nmol, Stan Dev 21.46",38.14 1/2 contralateral rotations ne
same,Net Turns (individual rat),[4]; dose 9.3 nmol,28.00 1/2 contralateral rotations ne and 20.00 1/2 contralateral rotations ne and 46.00 1/2 contralateral rotations ne and 87.00 1/2 contralateral rotations ne and 30.00 1/2 contralateral rotations ne and 22.00 1/2 contralateral rotations ne and 34.00 1/2 contralateral rotations ne
same,"Net Turns, Average","[4]; dose 14.9 nmol, Stan Dev = 27.08",31.00 1/2 contralateral rotations ne
same,Net Turns (individual rat),[4]; dose 14.9 nmol,6.00 1/2 contralateral rotations ne and 58.00 1/2 contralateral rotations ne and 13.00 1/2 contralateral rotations ne and 61.00 1/2 contralateral rotations ne and 7.00 1/2 contralateral rotations ne and 75.00 1/2 contralateral rotations ne and 24.00 1/2 contralateral rotations ne and 4.00 1/2 contralateral rotations ne
same,Circling behavior compared to saline control,"[4]; intranigral microinjection 1.5-14.9 nmol, F4,27=3.09, p=0.032","significant dose-related increases in circling behavior; also recorded: increasing doses of Compound #1 produce marked effects, which are statistically significant"
same,Doses producing circling compared with (+)-pentazocine,"[4]; intranigral, (+)-pentazocine data published previously",doses lower than those necessary to produce the effect with (+)-pentazocine
"CN(Cc1ccc(Cl)c(Cl)c1)[C@@H]1CCCC[C@@H]1N1CCCC1 (relative stereo) [compound 17, (±)-cis-N-[2-(3,4-dichlorophenyl)methyl]-N-methyl-2-(1-pyrrolidinyl)cyclohexylamine]",Ki,[1],1.2 ± 0.03 nM
"CCN(CCc1ccc(Cl)c(Cl)c1)[C@@H]1CCCC[C@@H]1N1CCCC1 [compound 5, (1R,2S)-(-)-cis-N-ethyl-N-[2-(3,4-dichlorophenyl)ethyl]-2-(1-pyrrolidinyl)cyclohexylamine]",Ki,[1],3.5 ± 1 nM
"CN(CCc1ccc(Cl)c(Cl)c1)[C@H]1CCCC[C@H]1N1CCCC1 [Compound No. 7, 1S,2R-(-)-cis-N-[2-(3,4-dichlorophenyl)ethyl]-N-methyl-2-(1-pyrrolidinyl)cyclohexylamine]",Ki,[3],30 ± 10 nM
same,Ki,[1],1.3 ± 0.3 nM
CC(C(O)c1ccc(O)cc1)N1CCC(Cc2ccccc2)CC1 (centres unmarked) [ifenprodil],NMDA receptor antagonism (in words),[2],non-competitive NMDA receptor antagonists
